Measured values published in US20140219999A1, “TREATMENT OF COLON CANCER USING COMPLEMENT INHIBITORS” (priority 2011, published 2014).

Key:
[1] = test system: B6.Apc^Min/+ model of intestinal neoplasia; test: Polyp number and cross sectional polyp area in B6.Apc^Min/+ mice treated with C5aR antagonist on HFCoco diet; format: in vivo, mouse; settings: 1 mg/kg subcutaneously every other day for 30 days
From the text: B6.Apc^Min/+ is a mouse model for intestinal neoplasia that carry a mutation in the Apc gene similar to that found in over 85% of sporadic colon cancer cases in humans. The APC mutation results in improper binding of β-catenin to the degradation complex and models the mutation observed in most sporadic human colon cancer tumors. B6.Apc^Min/+ mice develop 50-80 intestinal polyps in the small intestine by 120 days of age (Heijstek et al., 2005, Digest Surg. 22: 16-25). The APC amino acid sequence is 90% identical to that of the human APC.
B6.Apc^Min/+ and the CCSs (A2.Apc^Min/+, A7.Apc^Min/+, A9.Apc^Min/+, A17.Apc^Min/+, and A19.Apc^Min/+) along with the corresponding wild-type controls (B6, B6.A2, B6.A7, B6.A9, B6.A17 and B6.A19, respectively) were born and maintained on the standard 5010 diet until 30 days of age. Male mice were genotyped for the APC mutation using DNA that was purified from tail tissue taken at weaning. […] Body weight and length (to calculate BMI) as well as epidydimal fat pad mass were measured at the final time point.
Body weight and length were measured to calculate body mass index (BMI). Polyp number and polyp size from the small and large intestine were measured. […] The large intestine was excised and analyzed as one region (LI-1). […]

[2] = test system: activated AKT (pS473), IKK (pS176) and NFκB (pS536); test: Western analysis of intestinal tissue of treated B6.Apc^Min/+ mice (NFκB signaling); format: in vivo, mouse; settings: after 30 days on HFCoco diet and treatment; compared to control inhibitor
From the text: To test the function of this reduction in polyp number in mice treated with the C5aR inhibitor, intestinal tissues were collected and used to extract RNA and protein for expression and western analysis, respectively.

Acetyl-Phe-[Orn-Pro-D-cyclohexylalanine-Trp-Arg] [PMX-53]
cross sectional polyp area [1]: significantly reduced
polyp number ([1]; compared to untreated mice or mice injected with control inhibitor): significant reduction
activated AKT (pS473) protein level in intestine [2]: significant reduction
activated IKK (pS176) protein level in intestine [2]: significant reduction
activated NFκB (pS536) protein level in intestine [2]: significant reduction
